Some test systems named below: LXFL 529 NSCLC; DMS 114 small cell lung; KM20L2 colon; SNB-78 CNS; DLD-1 colon; XF 498 CNS; HOP-18 NSCLC; MDA-N.
Assay in all cases: NCI anticancer screen, dose series, 48 h

Where “and” joins values, the source holds several entries; their conditions need not be identical. Identical values can stand only once.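 96-well plates; 48 h exposure; 5 concentrations. Endpoints by linear interpolation between flanking doses. Not reached: highest tested concentration assigned. The concentration for 50% growth inhibition is given as GI50. TGI: concentration producing complete growth inhibition.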

Turning to `COc1ccc(/C=N/N=C(\N)NO)cc1OC`, the TGI in the assay on LXFL 529 NSCLC was greater than 100 µM; with DMS 114 small cell lung it was 92.5 µM; in the assay with KM20L2 colon, greater than 100 µM; with SNB-78 CNS it was greater than 100 µM; with DLD-1 colon, greater than 100 µM; in the assay on XF 498 CNS it was greater than 100 µM.
Regarding `O=C1c2cccc3cc([N+](=O)[O-])cc(c23)C(=O)N1CCNCCNCCNCCN1C(=O)c2cccc3cc([N+](=O)[O-])cc(c23)C1=O`, the TGI is 0.496 µM with LXFL 529 NSCLC; 0.41 µM and 0.264 µM in the assay with DMS 114 small cell lung; 0.576 µM in the assay on KM20L2 colon; 0.399 µM and 0.686 µM in the assay with SNB-78 CNS; 0.272 µM with DLD-1 colon. Moreover, in the assay on SNB-78 CNS, the GI50 is 0.0474 µM.
Consider `CCCCCCCCCC(=O)CC(=O)c1ccc(O)cc1O`, for which the TGI is greater than 100 µM with LXFL 529 NSCLC, greater than 100 µM in the assay on KM20L2 colon, greater than 100 µM with DLD-1 colon and 81.9 µM in the assay on HOP-18 NSCLC.
`CC(=O)O[C@H]1C(=O)[C@@]2(C)C(C(OC(=O)c3ccccc3)[C@]3(O)CC(OC(=O)[C@H](OC(=O)CCC(=O)O)C(NC(=O)c4ccccc4)c4ccccc4)C(C)=C1C3(C)C)C1(OC(C)=O)COC1C[C@@H]2OC(=O)CCC(=O)O` (some centres undefined): in the assay with MDA-N, the GI50 was 0.253 µM and the TGI was found to be 1.21 µM.
As to `O=c1n(C2CCCCC2)c(=C(Cl)Cl)c(=C(Cl)Cl)n1C1CCCCC1`, the TGI in the assay on DMS 114 small cell lung, in the assay on KM20L2 colon, in the assay with SNB-78 CNS, in the assay on DLD-1 colon, in the assay on XF 498 CNS and in the assay on HOP-18 NSCLC was greater than 100 µM in each case.
For `O=C(O)C(=Cc1ccnc2ccccc12)C(=O)O`, the TGI in the assay with MDA-N is greater than 100 µM.
Take `COc1ccc(C=C2C(=O)OC(C)(C)OC2=O)cc1OC`: the TGI in the assay with LXFL 529 NSCLC, with DMS 114 small cell lung, in the assay on KM20L2 colon, with SNB-78 CNS, in the assay with DLD-1 colon and in the assay on XF 498 CNS was greater than 100 µM throughout.
Consider `C/C(=N/S(=O)(=O)c1ccc(Cl)c(Cl)c1)OCC(C)(C)C`, for which the TGI with MDA-N is greater than 100 µM.
On to `CC(C)NCCNC(=O)c1ccccc1Nc1c(Cl)cccc1Cl`, for which the TGI came out at 31.5 µM with LXFL 529 NSCLC; 23.4 µM in the assay with DMS 114 small cell lung; 5.78 µM in the assay on KM20L2 colon; 31.5 µM in the assay on SNB-78 CNS; 25.7 µM in the assay with DLD-1 colon; 11.4 µM with XF 498 CNS.
With `COc1cc2oc(=O)ccc2cc1C1OC(=O)C2OC21C` (centres undefined), the TGI in the assay on MDA-N was greater than 100 µM.
Still for that read-out and setting: with `Cc1c(N=Nc2ccc([N+](=O)[O-])cc2)nc2scc(-c3ccccc3)n12` the figure was greater than 100 µM.
As for `COc1cc(Nc2nc3cc(N)cc(N)c3nc2-c2ccccc2)cc(OC)c1`, in the assay on MDA-N, the GI50 is 13 µM and the TGI came out at 35.9 µM.
The compound `CCCC1c2c(ccc3ccccc23)Oc2ccc3ccccc3c21` gave a TGI in the assay with MDA-N greater than 100 µM.
Same read-out and setting: with `O=C(O)c1cc2ccccc2c(O)c1O` the figure was 4.01 µM; with `O=c1cc(C(F)(F)F)c2cc3c(cc2o1)NCCC3`, greater than 100 µM; with `CC(=O)Nc1ccc(/C=C/[N+](=O)[O-])cc1`, 6.59 µM.
Consider `CC(=O)Nc1ccc(C(=O)N2N=C(C)/C(=C/c3ccccc3O)C2=O)cc1`, for which the TGI in the assay on DMS 114 small cell lung, in the assay on SNB-78 CNS, in the assay with DLD-1 colon, in the assay on XF 498 CNS and in the assay on HOP-18 NSCLC was greater than 100 µM in each case.
`N#CC(NNC(=O)c1ccccc1O)c1ccc(O)cc1` (centres undefined): the TGI with LXFL 529 NSCLC was greater than 100 µM; in the assay with DMS 114 small cell lung, 8.62 µM; with KM20L2 colon, greater than 100 µM; with HOP-18 NSCLC, greater than 100 µM.
In the assay on MDA-N, `O=c1c2ccccc2c2ccccc2c(=O)n1-c1cc2c3ccccc3ccc2c2ccccc12` showed a TGI greater than 100 µM.
Regarding `Cc1ccc(NC(=O)CC2C(=O)Nc3ccccc3S2=O)cc1C` (centres undefined), the TGI with LXFL 529 NSCLC, with DMS 114 small cell lung, with KM20L2 colon, with SNB-78 CNS, with DLD-1 colon and in the assay with XF 498 CNS was greater than 100 µM each time.
Turning to `CCCCCCCCCCC/C(=N/O)c1ccc(O)c2ncccc12`, the TGI with LXFL 529 NSCLC is 7.57 µM; with DMS 114 small cell lung it was 6.79 µM; in the assay on KM20L2 colon, 17.6 µM; in the assay with SNB-78 CNS, greater than 100 µM; in the assay on DLD-1 colon, 8.91 µM; in the assay with HOP-18 NSCLC, 9.59 µM.
In the case of `CCOC(=O)CC(=O)Sc1ccccc1`, the TGI in the assay on DMS 114 small cell lung is 32 µM; in the assay on KM20L2 colon, 47.5 µM; with DLD-1 colon it was 53.6 µM; with XF 498 CNS, 93.4 µM; with HOP-18 NSCLC, greater than 100 µM.
Consider `CCCC[C@H]1C(=O)O[C@H](C)[C@H](NC(=O)c2cccc(NC=O)c2O)C(=O)O[C@@H](C)[C@@H]1OC(=O)CC(C)C`, for which, in the assay with MDA-N, the TGI amounted to 51.9 µM.
In the case of `[N-]=[N+]=NC(c1cn(C2CC(O)C(CO)O2)c(=O)[nH]c1=O)C(Br)I` (centres undefined), the TGI in the assay on LXFL 529 NSCLC, with DMS 114 small cell lung, in the assay with KM20L2 colon, with SNB-78 CNS and with DLD-1 colon was greater than 100 µM in each case.

These data come from PubChem BioAssay (NCI).
